Reference: article PMC2267855, “Site-directed mutagenesis of Arginine282 suggests how protons and peptides are co-transported by rabbit PepT1” (The International Journal of Biochemistry & Cell Biology, 2008)
Changes are numbered by the printed parent chain. Where a SMILES comes first, the peptide text is derived from it.

How the values were obtained:
[1] = molecular target: T1, wild-type rabbit PepT1 (Oryctolagus cuniculus, UniProt P36836); assay: Inhibition of [3H]-D-Phe-L-Gln uptake into Xenopus oocytes expressing wild-type PepT1 (competition, Ki); format: cell-based; settings: wild-type PepT1, pHout 5.5, 0.4 μM [3H]-D-Phe-L-Gln, Xenopus oocytes; read-out: Ki (inhibition of [3H]-D-Phe-L-Gln uptake)
T1 construct: expressed in transfected cells; host or cells: Xenopus laevis oocytes injected with cRNA
T1 sequence (P36836 1-707): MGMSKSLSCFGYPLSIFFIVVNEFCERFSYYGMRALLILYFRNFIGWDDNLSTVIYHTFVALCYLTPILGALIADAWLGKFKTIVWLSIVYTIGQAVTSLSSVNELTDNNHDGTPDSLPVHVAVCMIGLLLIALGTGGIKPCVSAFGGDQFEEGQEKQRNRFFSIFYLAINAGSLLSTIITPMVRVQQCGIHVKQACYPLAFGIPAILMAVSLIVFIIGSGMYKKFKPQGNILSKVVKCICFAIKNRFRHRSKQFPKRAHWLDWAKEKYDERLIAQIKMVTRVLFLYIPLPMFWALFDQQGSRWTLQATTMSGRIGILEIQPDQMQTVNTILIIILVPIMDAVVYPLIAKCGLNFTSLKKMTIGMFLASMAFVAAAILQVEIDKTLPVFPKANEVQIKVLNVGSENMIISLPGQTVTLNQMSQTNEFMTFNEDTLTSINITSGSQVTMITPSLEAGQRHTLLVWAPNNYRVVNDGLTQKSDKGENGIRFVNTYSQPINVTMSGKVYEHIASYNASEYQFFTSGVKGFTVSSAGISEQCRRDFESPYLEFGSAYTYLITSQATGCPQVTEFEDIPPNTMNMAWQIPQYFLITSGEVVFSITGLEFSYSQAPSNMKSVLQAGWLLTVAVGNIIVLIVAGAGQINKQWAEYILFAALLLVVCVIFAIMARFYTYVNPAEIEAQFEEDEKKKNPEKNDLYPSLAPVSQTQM
Method: (§1) Zero-trans uptake of [^3H]-D-Phe-L-Gln (17.4 Ci/mmole, custom synthesised, Cambridge Research Biochemicals, Stockton-on-Tees, UK) was performed as previously described ([Meredith, 2004]). Briefly, 5 oocytes were incubated in 100 μl of uptake medium (95 mM NaCl, 2 mM KCl, 1 mM CaCl2, 0.42 mM MgCl2, 10 mM Tris/Hepes pH 7.4 or Tris/Mes pH 5.5) with tracer (0.4 μM) [^3H]-D-Phe-L-Gln. After incubation, the oocytes were washed sequentially five times in 1 ml of ice-cold 120 mM NaCl solution, lysed individually with 100 μl 2% (w/v) SDS and liquid scintillation counted. As a control non-injected oocytes were also incubated in uptake medium with [^3H]-D-Phe-L-Gln as above.
(§2) The affinity of wild-type and mutant PepT1 were assessed by competition studies with 0.4 μM [^3H]-D-Phe-L-Gln and Gly-L-Gln present in the uptake medium in concentrations from 0 to 2 mM using the protocol above, and the Ki calculated using the method of [Deves and Boyd (1989)].

[2] = molecular target: T2, R282D-PepT1 (Oryctolagus cuniculus, UniProt P36836, R282D); assay: Inhibition of [3H]-D-Phe-L-Gln uptake into Xenopus oocytes expressing R282D-PepT1 (competition, Ki); format: cell-based, rabbit; settings: pHout 5.5, 0.4 μM [3H]-D-Phe-L-Gln
T2 construct: expressed in transfected cells; host or cells: Xenopus laevis oocytes injected with cRNA
T2 sequence (P36836 1-707 R282D): T1 sequence (P36836 1-707) with R282D
Method: as §1, §2

[3] = molecular target: T2, R282D-PepT1; assay: Apparent charge:peptide stoichiometry (two-electrode voltage clamp current / radiolabelled uptake), R282D-PepT1; format: cell-based, rabbit; settings: R282D-PepT1, pHout 5.5, resting membrane potential
Method: Measurements of membrane potential were made by impaling oocytes with a single glass microelectrode (Intra 767 amplifier, WPI, Stevenage, Hertfordshire, UK) perfused in uptake medium (as above) with or without 0.4 μM D-Phe-L-Gln (synthesised in house), 0.6 mM Gly-L-Gln (Sigma, Poole, UK) or 10 mM 4-aminobenzoic acid (4-AMBA, Sigma). Two-electrode voltage clamp (TEVC) was performed by placing oocytes in a 0.1 ml recording chamber and perfusing with uptake solution (pH 5.5 or 7.4) at a rate of 15 ml/min. Oocytes were impaled by two agarose-cushioned microelectrodes filled with 3 M KCl (0.5–2.0 MΩ) and voltage-clamped at −60 mV using a Geneclamp 500B amplifier and PCLAMP 8.1 software (Axon Instruments, CA, USA). The holding potential was stepped from −60 mV over the range of −150 to +50 mV in 10 mV steps, each pulse lasting 100 ms, and returning to −60 mV in between test voltage pulses. Typically traces were filtered at 1 kHz during recording and digitized at 0.5–5 kHz using the DigiData 1200 interface (Axon Instruments, CA, USA). All experiments were carried out at room temperature.
In order to calculate the apparent charge:substrate stoichiometry, the peptide induced current that was measured by two-electrode voltage clamp at the oocyte resting membrane potential was divided by the radiolabelled dipeptide uptake in oocytes from the same preparation. […]

Ki [1] | Ki [2] | apparent stoichiometry (charge:peptide), normalised to wild-type 1:1 [3] | Compound
390 ± 220 µM | 340 ± 270 µM |  | NCC(=O)N[C@@H](CCC(N)=O)C(=O)O [Gly-L-Gln] (H-Gly-Gln-OH)
 |  | 5 | NC(=O)CC[C@H](NC(=O)[C@H](N)Cc1ccccc1)C(=O)O [D-Phe-L-Gln]
